Experimental findings from patent US20190255073A1, “ESTERS OF 3-POLYAMINE DERIVATIVES OF BILE ACIDS FOR THE TREATMENT OF INFECTIONS” (VIRBAC, priority 2016, published 2019) are described below.

In experiment [1] the test system is P. aeruginosa ATCC27853. The experiment in a line: MIC determination by microplate dilution, P. aeruginosa human strain. It is filed as cell-based, Pseudomonas aeruginosa. To be noted: Pseudomonas aeruginosa, ATCC27853, Gram-negative, Mueller-Hinton medium, 24 h, 37° C. In outline: (§1)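 Bacteria were precultured 24 h at 37 °C, standardised by OD600 and seeded into Mueller-Hinton broth at OD 0.01 per well. Test compounds, from a 5 mg/mL DMSO/methanol stock, were diluted two-fold across the plate. After 24 h humid incubation at 37 °C, absorbance at 620 nm gave the MIC.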

In experiment [2] the test system is E. coli (1956). Nature of the experiment: MIC determination by microplate dilution, E. coli animal strain. Type of experiment: cell-based, Escherichia coli. To be noted: Escherichia coli, Gram-negative, Mueller-Hinton medium, 24 h, 37° C. In outline:
as §1

Experiment [3] has as its system P. aeruginosa (1051575). Nature of the experiment: MIC determination by microplate dilution, P. aeruginosa animal strain. Type of experiment: cell-based, Pseudomonas aeruginosa. To be noted: Pseudomonas aeruginosa, Gram-negative, Mueller-Hinton medium, 24 h, 37° C. The procedure, abridged:
as §1

For experiment [4], the system named is A. niger. Nature of the experiment: Antifungal activity, cascade microdilution, A. niger. As to conditions: Aspergillus niger, 24 h, read-out: IC50 (μg/mL) A. niger. Type of experiment: cell-based. The procedure:
1) Preparation of the Preculture
A negative control (2 mL of sterile Mueller Hinton MH culture medium)
A positive control (1980 μL of culture medium+20 μL of yeast or fungal suspension) from a thawed biological strain (the biological strains are stored at −80° C. in glycerol).
The tubes were incubated at 37° C. for 24 hours at 100 rpm.
The chemical compounds to be tested were prepared at a concentration of 5 mg/mL (in the form of the hydrochloride in water).
2) Preparation of the Microplate for the Determination of the Minimum Inhibitory Concentration (MIC)
The MIC is obtained by using the cascade microdilution method in sterile 96-well plates. 100 μL of MH culture medium are first placed in each well, and 8 μL of the solution (5 mg/mL) of the test molecule are then added to the first wells. The volume is made up with medium to obtain a total volume of 200 μL in these wells. Serial dilution is then performed by taking 100 μL from the first well, and so on successively from well to well. 100 μL of inoculate containing 2-6×10^5 CFU of yeast or fungi are then added to each well. Certain wells are reserved for positive and negative controls.
3) Reading of the Results
After incubation, an optical density (OD) reading was taken in an iEMS plate spectrophotometer at 620 nm. Calculation of the minimum inhibitory concentration (MIC) was performed.

Experiment [5] relates to E. coli ATCC28922. The experiment in a line: MIC determination by microplate dilution, E. coli human strain. It is filed as cell-based, Escherichia coli. As to conditions: Escherichia coli, ATCC28922, Gram-negative, Mueller-Hinton medium, 24 h, 37° C. In outline: as §1
In experiment [6] the test system is S. intermedius (1051997). The experiment in a line: MIC determination by microplate dilution, S. intermedius animal strain. To be noted: Staphylococcus intermedius, Gram-positive, Mueller-Hinton medium, 24 h, 37° C. It is filed as cell-based, Staphylococcus intermedius. The procedure, abridged: as §1
The subject of experiment [7] is S. aureus (340). The experiment in a line: MIC determination by microplate dilution, S. aureus animal strain. Type of experiment: cell-based, Staphylococcus aureus. As to conditions: Staphylococcus aureus, Gram-positive, Mueller-Hinton medium, 24 h, 37° C. In outline: as §1
Experiment [8] has as its system P. aeruginosa (1051575). The experiment in a line: Potentiation of the doxycycline activity at 2 μg/mL. It is filed as cell-based, Pseudomonas aeruginosa. As to conditions: in combination with doxycycline 2 μg/mL; 24 h, 37°.
Experiment [9] has as its system S. aureus ATCC25923. Nature of the experiment: MIC determination by microplate dilution, S. aureus human strain. As to conditions: Staphylococcus aureus, ATCC25923, Gram-positive, Mueller-Hinton medium, 24 h, 37° C. It is filed as cell-based, Staphylococcus aureus. The procedure, abridged: as §1
Experiment [10] relates to E. faecalis ATCC29212. The experiment in a line: MIC determination by microplate dilution, E. faecalis human strain. Type of experiment: cell-based, Enterococcus faecalis. As to conditions: Enterococcus faecalis, ATCC29212, Gram-positive, Mueller-Hinton medium, 24 h, 37° C. In outline:
as §1

Experiment [11] has as its system CHO-K1 cells. Nature of the experiment: WST1 cytotoxicity test on CHO-K1 cells. It is filed as cell-based, Chinese hamster. As to conditions: Cricetulus griseus. The procedure, abridged:
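Viability read-out: WST-1 tetrazolium cleavage by mitochondrial dehydrogenases, 20 min at 37 °C, A450. Compounds added at rising concentrations, in duplicate, to CHO-K1 cells for 24 h (37 °C, 5% CO2). IC50, the concentration halving viability, fitted by nonlinear regression.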

The subject of experiment [12] is C. albicans. The experiment in a line: Antifungal activity, cascade microdilution, C. albicans. It is filed as cell-based, Candida albicans. As to conditions: Candida albicans, 24 h, read-out: IC50 (μg/mL) C. albicans. A general note: Broth dilution looks for growth in wells or tubes with falling amounts of substance.
For experiment [13], the system named is P. aeruginosa (PAO1). The experiment in a line: MIC of doxycycline on P. aeruginosa PAO1. It is filed as cell-based. As to conditions: Pseudomonas aeruginosa; doxycycline alone; Gram-negative strain P. aeruginosa (PAO1). The protocol: On the Gram-negative strain of P. aeruginosa (PAO1), doxycycline has an MIC of 40 μg/mL.
[14] abbreviates: CHO-K1, 24 h, read-out: IC50 (μg/mL) CHO.
Setting [15] is: CHO-K1, read-out: IC50 (μg/mL) CHO.

Values after ≈ are worked out from the molar mass of the structure shown. Read-outs that look alike come from different tables or passages of the source.

Take `COC(=O)CC[C@@H](C)[C@H]1CCC2C3C(CC[C@@]21C)[C@@]1(C)CC[C@H](NCCCN(CCCN)CCCN)CC1C[C@H]3O` (stereo partly drawn) [(38), methyl 3β-(tris(3-aminopropyl)amine)chenodeoxycholate]: the minimum inhibitory concentration (MIC) (in general, the lowest concentration that inhibits growth of the organism) in experiment [1] was 28 µg/mL (≈ 48.5 µM); in [2] it was 14 µg/mL (≈ 24.3 µM); in [3] it was 14 µg/mL (≈ 24.3 µM); in experiment [5], 28 µg/mL (≈ 48.5 µM); in experiment [6], 29 µg/mL (≈ 50.3 µM); in [7] it was 14 µg/mL (≈ 24.3 µM). Besides, the figures for the MIC in experiment [9] and in [10] were 14 µg/mL (≈ 24.3 µM) and 3.5 µg/mL (≈ 6.07 µM), respectively. For the same compound, the IC50 in experiment [4] was found to be 4 µg/mL (≈ 6.93 µM); in [11] (setting [14]), 17 µg/mL (≈ 29.5 µM); in experiment [11] (setting [15]), 17 µg/mL (≈ 29.5 µM); in experiment [12], 115 µg/mL (≈ 199 µM). For the same compound, in experiment [8], the “MIC - P. aeruginosa (1051575): content of compound of formula (I) to restore the doxycycline activity (at 2 μg/mL)” value turned out to be 2 µg/mL.

On to `CC(C)OC(=O)CC[C@@H](C)[C@H]1CCC2C3C(CC[C@@]21C)[C@@]1(C)CC[C@H](NCCCNCCCNCCCN)CC1C[C@H]3O` (stereo partly drawn) [Compound (10), isopropyl 3β-norsperminochenodeoxycholate], for which the MIC amounted to 10 µg/mL (≈ 16.5 µM) in experiment [2]; 4 µg/mL (≈ 6.61 µM) in experiment [3]; 16 µg/mL (≈ 26.4 µM) in experiment [5]; 0.8 µg/mL (≈ 1.32 µM) in [6]; 2 µg/mL (≈ 3.31 µM) in experiment [7]; 4 µg/mL (≈ 6.61 µM) in [9]. Inhibition of growth in experiment [10] (MIC) required 8 µg/mL (≈ 13.2 µM). Also, the IC50 came to 4 µg/mL (≈ 6.61 µM) in experiment [4], 85 µg/mL (≈ 141 µM) in experiment [11] (setting [14]), 85 µg/mL (≈ 141 µM) in [11] (setting [15]) and 2 µg/mL (≈ 3.31 µM) in experiment [12]. Besides, the “MIC - P. aeruginosa (1051575): content of compound of formula (I) to restore the doxycycline activity (at 2 μg/mL)” value in [8] worked out at 2 µg/mL.

As for `C[C@H]1c2cccc(O)c2C(=O)C2=C(O)[C@]3(O)C(=O)C(C(N)=O)=C(O)[C@@H](N(C)C)[C@@H]3[C@@H](O)[C@@H]21` [doxycycline], in experiment [13], the MIC is 40 µg/mL.
